The EC50 is the concentration giving half of the maximal effect. As usually defined, the Emax is the greatest response seen or fitted, relative to the assay's reference. A word on the IC50: it is the midpoint of a concentration-inhibition curve.

The values below come from ChEMBL document CHEMBL5705895, “Species comparison and pharmacological characterization of human, monkey, rat, and mouse TRPA1 channels” (J Pharmacol Exp Ther, 2012).

What all share (assay type): cell-based
Assay [1] has as its target T1, Transient receptor potential cation channel subfamily A member 1 (Homo sapiens, UniProt O75762). Put plainly: Agonist activity at full length human TRPA1 transfected in HEK293F cells assessed as increase in Ca2+ influx by FLIPR calcium assay.
Assay [2] concerns the target Transient receptor potential cation channel subfamily A member 1 (Rattus norvegicus) (UniProt Q6RI86). Put plainly: Agonist activity at full length rat TRPA1 transfected in HEK293F cells assessed as increase in Ca2+ influx by FLIPR calcium assay relative to MO. The conditions noted are these: filed as agonist.
Assay [3] deals with T2, Transient receptor potential cation channel subfamily A member 1 (Rattus norvegicus, UniProt Q6RI86). Kind of assay: Agonist activity at full length rat TRPA1 transfected in HEK293F cells assessed as increase in Ca2+ influx by FLIPR calcium assay.
Assay [4] deals with Transient receptor potential cation channel subfamily A member 1 (Mus musculus) (UniProt Q8BLA8). Put plainly: Agonist activity at full length mouse TRPA1 transfected in HEK293F cells assessed as increase in Ca2+ influx by FLIPR calcium assay relative to control. The conditions noted are these: filed as agonist.
Assay [5] addresses T3, Transient receptor potential cation channel subfamily A member 1 (Macaca mulatta) (UniProt A0A1D5QMT1). Put plainly: Agonist activity at rhesus monkey TRPA1 transfected in HEK293F cells assessed as increase in Ca2+ influx by FLIPR calcium assay relative to MO. The conditions noted are these: filed as agonist.
Assay [6] deals with T1, Transient receptor potential cation channel subfamily A member 1. Kind of assay: Agonist activity at full length human TRPA1 transfected in HEK293F cells assessed as increase in Ca2+ influx by FLIPR calcium assay relative to MO. As to conditions: filed as agonist.
Assay [7] concerns the target T4, Transient receptor potential cation channel subfamily A member 1 (Mus musculus, UniProt Q8BLA8). Put plainly: Agonist activity at full length mouse TRPA1 transfected in HEK293F cells assessed as increase in Ca2+ influx by FLIPR calcium assay.
Assay [8] addresses T5, Transient receptor potential cation channel subfamily A member 1 (Macaca mulatta, UniProt A0A1D5QMT1). Put plainly: Agonist activity at rhesus monkey TRPA1 transfected in HEK293F cells assessed as increase in Ca2+ influx by FLIPR calcium assay.
For assay [9], the target named is T1, Transient receptor potential cation channel subfamily A member 1. Put plainly: Antagonist activity at full length human TRPA1 transfected in HEK293F cells assessed as blockade of MO-induced TRPA1 channel activation by measuring Ca2+ influx in presence of 30 uM MO by FLIPR calcium assay.
Assay [10] concerns the target T2, Transient receptor potential cation channel subfamily A member 1. Put plainly: Antagonist activity at full length rat TRPA1 transfected in HEK293F cells assessed as blockade of MO-induced TRPA1 channel activation by measuring Ca2+ influx in presence of 30 uM MO by FLIPR calcium assay.
In assay [11] the target is T4, Transient receptor potential cation channel subfamily A member 1. Kind of assay: Antagonist activity at full length mouse TRPA1 transfected in HEK293F cells assessed as blockade of MO-induced TRPA1 channel activation by measuring Ca2+ influx in presence of 30 uM MO by FLIPR calcium assay.
Assay [12] has as its target T5, Transient receptor potential cation channel subfamily A member 1. Put plainly: Antagonist activity at full length rhesus monkey TRPA1 transfected in HEK293F cells assessed as blockade of MO-induced TRPA1 channel activation by measuring Ca2+ influx in presence of 120 uM MO by FLIPR calcium assay.
Assay [13] addresses T3, Transient receptor potential cation channel subfamily A member 1 (Macaca mulatta). Kind of assay: Antagonist activity at rhesus monkey TRPA1 transfected in HEK293F cells assessed as increase in Ca2+ influx by FLIPR calcium assay. The conditions noted are these: filed as antagonist.
For assay [14], the target named is Transient receptor potential cation channel subfamily A member 1 (Rattus norvegicus) (UniProt Q6RI86). Kind of assay: Agonist activity at full length rat TRPA1 transfected in HEK293F cells assessed as blockade of MO-induced TRPA1 channel activation by measuring Ca2+ influx in presence of 30 uM MO by FLIPR calcium assay. As to conditions: filed as agonist.
Assay [15] concerns the target T1, Transient receptor potential cation channel subfamily A member 1. Put plainly: Antagonist activity at full length human TRPA1 transfected in HEK293F cells assessed as increase in Ca2+ influx by FLIPR calcium assay. As to conditions: filed as antagonist.
Assay [16] has as its target Transient receptor potential cation channel subfamily A member 1 (Mus musculus) (UniProt Q8BLA8). Put plainly: Agonist activity at full length mouse TRPA1 transfected in HEK293F cells assessed as blockade of MO-induced TRPA1 channel activation by measuring Ca2+ influx in presence of 30 uM MO by FLIPR calcium assay. As to conditions: filed as agonist.
Assay [17] has as its target T5, Transient receptor potential cation channel subfamily A member 1. Kind of assay: Activation of full length rhesus monkey TRPA1 transfected in HEK293F cells assessed as 120 uM of MO-induced current Blockade at -60 mV by whole-cell recording analysis.
For assay [18] the target is unchanged. Put plainly: Activation of full length rhesus monkey TRPA1 transfected in HEK293F cells assessed as 1 mM of MO-induced current Blockade at -60 mV by whole-cell recording analysis.
The target of assay [19] is T1, Transient receptor potential cation channel subfamily A member 1. Kind of assay: Agonist activity at full length human TRPA1 transfected in HEK293F cells assessed as increase in Ca2+ influx in presence of 30 to 1000 uM MO by FLIPR calcium assay.

Molecules are shown by their SMILES. Calls of active or inactive are those of the source. The rule behind the calls is not given here.

T3 sequence (A0A1D5QMT1 as listed by the source): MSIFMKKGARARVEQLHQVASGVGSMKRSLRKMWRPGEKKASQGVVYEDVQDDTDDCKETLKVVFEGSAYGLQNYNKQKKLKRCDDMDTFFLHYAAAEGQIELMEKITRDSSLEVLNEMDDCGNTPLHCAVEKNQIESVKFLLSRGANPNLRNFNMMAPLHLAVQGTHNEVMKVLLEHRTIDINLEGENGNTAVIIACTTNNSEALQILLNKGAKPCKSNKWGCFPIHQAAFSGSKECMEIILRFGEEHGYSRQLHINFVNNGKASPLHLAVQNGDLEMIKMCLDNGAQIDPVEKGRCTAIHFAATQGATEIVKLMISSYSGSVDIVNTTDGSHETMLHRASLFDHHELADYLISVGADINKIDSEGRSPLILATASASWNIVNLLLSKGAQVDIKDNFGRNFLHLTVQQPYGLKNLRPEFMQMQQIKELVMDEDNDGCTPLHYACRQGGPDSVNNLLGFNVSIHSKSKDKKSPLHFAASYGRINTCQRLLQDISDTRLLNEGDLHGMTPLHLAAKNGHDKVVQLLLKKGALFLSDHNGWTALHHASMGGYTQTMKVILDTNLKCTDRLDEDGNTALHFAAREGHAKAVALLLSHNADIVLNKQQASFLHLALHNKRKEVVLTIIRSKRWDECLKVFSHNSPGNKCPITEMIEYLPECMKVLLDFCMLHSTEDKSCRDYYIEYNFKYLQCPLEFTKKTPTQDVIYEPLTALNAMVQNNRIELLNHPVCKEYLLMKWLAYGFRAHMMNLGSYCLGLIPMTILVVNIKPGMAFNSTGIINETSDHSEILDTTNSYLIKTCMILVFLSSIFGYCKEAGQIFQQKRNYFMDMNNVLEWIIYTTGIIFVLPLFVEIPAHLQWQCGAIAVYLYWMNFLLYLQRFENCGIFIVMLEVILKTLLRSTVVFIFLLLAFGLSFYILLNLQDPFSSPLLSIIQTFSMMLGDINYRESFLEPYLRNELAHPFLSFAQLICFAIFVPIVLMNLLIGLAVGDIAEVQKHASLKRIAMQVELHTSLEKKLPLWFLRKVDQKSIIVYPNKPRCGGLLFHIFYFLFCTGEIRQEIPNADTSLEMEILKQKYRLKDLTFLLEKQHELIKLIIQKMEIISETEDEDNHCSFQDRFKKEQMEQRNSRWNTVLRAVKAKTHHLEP
T5 sequence (A0A1D5QMT1 whole entry): as the sequence (A0A1D5QMT1 as listed by the source) above
T1 sequence (O75762 whole entry): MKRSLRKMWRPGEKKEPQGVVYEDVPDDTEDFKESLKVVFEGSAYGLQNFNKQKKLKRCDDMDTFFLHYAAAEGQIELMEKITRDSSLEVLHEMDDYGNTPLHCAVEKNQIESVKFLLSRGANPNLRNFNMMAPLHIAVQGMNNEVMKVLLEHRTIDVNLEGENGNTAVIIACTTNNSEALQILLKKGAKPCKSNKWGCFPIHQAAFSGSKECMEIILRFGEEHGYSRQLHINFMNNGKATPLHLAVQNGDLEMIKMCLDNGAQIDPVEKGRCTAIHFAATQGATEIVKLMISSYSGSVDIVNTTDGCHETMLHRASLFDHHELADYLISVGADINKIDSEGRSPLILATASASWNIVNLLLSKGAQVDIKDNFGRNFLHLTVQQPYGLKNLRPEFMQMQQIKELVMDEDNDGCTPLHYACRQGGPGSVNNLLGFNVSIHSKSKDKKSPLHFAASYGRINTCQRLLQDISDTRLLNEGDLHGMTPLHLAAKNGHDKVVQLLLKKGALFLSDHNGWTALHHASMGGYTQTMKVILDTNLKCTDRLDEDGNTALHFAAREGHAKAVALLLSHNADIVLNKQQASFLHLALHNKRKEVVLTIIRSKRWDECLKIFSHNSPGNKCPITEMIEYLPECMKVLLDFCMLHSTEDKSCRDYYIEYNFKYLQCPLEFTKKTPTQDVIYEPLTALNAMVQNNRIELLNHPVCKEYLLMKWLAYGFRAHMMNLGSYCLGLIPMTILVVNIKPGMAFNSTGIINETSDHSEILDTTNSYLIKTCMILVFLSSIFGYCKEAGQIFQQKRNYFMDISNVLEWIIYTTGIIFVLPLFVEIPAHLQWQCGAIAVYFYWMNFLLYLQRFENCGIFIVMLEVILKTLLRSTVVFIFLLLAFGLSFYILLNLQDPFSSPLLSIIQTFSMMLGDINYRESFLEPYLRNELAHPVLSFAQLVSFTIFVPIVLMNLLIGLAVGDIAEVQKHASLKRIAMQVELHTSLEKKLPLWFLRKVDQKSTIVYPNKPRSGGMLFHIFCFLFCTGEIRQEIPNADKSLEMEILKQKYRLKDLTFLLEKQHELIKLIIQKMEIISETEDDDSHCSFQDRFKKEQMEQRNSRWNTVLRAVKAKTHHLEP
Transient receptor potential cation channel subfamily A member 1 (Rattus norvegicus), sequence (Q6RI86 whole entry): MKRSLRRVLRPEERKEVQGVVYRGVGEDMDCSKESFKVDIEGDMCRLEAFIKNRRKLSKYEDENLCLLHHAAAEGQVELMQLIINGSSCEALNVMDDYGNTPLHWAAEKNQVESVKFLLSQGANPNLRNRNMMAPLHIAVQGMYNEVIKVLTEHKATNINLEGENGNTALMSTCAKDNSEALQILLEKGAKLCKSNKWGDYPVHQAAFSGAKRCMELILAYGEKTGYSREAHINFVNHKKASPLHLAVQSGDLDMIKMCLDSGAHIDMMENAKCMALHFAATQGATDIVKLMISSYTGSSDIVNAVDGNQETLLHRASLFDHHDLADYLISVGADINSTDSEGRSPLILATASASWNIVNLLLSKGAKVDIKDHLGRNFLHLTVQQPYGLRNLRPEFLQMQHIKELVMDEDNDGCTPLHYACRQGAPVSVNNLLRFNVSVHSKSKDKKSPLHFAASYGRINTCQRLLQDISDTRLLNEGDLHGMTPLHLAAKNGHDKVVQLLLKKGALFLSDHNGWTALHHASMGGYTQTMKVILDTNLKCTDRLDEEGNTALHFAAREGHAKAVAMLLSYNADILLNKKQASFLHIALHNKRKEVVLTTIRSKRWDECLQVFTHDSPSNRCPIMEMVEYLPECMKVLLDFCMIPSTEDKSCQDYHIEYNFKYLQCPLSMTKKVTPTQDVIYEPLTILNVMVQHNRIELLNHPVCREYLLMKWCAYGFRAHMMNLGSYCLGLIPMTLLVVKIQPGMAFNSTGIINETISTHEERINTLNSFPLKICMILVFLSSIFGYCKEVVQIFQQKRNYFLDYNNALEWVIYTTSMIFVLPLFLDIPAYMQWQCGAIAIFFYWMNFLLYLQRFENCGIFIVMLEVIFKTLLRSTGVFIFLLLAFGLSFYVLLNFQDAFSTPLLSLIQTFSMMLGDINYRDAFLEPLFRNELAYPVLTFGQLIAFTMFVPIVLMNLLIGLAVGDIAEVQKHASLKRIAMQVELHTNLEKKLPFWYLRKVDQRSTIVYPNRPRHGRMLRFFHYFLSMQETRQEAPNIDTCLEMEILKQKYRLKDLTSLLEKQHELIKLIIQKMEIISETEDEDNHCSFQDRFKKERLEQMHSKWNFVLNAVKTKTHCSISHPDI
T2 sequence (Q6RI86 whole entry): as above
Transient receptor potential cation channel subfamily A member 1 (Mus musculus), sequence (Q8BLA8 whole entry): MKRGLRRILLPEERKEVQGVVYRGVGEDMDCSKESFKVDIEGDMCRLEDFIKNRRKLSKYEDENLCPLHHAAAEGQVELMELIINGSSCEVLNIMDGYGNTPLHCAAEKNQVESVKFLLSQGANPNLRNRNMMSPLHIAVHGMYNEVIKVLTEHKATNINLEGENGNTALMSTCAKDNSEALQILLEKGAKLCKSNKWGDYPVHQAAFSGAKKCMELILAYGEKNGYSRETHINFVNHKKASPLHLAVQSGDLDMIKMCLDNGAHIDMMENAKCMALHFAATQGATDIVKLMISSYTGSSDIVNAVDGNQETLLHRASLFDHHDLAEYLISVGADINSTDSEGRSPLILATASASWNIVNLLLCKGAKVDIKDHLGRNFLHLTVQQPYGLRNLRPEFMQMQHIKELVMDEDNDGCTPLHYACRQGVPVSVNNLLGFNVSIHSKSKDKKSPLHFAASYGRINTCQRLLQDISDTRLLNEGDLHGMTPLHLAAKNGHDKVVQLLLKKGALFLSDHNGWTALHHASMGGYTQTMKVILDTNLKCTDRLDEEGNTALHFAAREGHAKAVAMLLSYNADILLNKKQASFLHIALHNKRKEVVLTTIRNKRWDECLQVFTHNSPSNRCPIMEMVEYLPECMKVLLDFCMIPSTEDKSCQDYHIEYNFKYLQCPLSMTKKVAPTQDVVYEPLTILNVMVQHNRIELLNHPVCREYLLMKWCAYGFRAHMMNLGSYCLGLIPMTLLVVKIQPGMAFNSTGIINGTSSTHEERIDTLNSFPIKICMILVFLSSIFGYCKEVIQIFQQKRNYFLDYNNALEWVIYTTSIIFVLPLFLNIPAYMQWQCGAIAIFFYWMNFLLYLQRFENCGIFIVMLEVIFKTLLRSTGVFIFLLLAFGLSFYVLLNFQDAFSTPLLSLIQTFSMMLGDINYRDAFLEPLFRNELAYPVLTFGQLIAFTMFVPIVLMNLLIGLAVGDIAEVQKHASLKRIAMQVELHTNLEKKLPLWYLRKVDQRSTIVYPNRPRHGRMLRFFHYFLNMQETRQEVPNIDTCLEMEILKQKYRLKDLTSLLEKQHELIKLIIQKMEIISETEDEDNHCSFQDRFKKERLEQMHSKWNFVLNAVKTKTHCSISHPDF
T4 sequence (Q8BLA8 whole entry): as above

For `O=C/C=C/c1ccccc1`, the EC50 worked out at 12.5 µM in [1], 5.4 µM in assay [3], 3.4 µM in assay [7] and 23.9 µM in assay [8]. The Emax came out at 89% in [2], 71% in [4], 84% in assay [5] and 81% in assay [6].
As to `CC(=C\c1ccc(Cl)cc1)/C(C)=N/O` [AP18 5], the half-inhibitory concentration (IC50) in assay [9] came out at 9.1 µM; in assay [10] it was 39.9 µM; in [11], 33 µM; in [12], 56.4 µM.
Regarding `Cn1c(=O)c2c(ncn2C)n(C)c1=O` [CAFFEINE], the result in assay [13], in [14], in [15] and in assay [16] was Active. Further, the IC50 in [9] was 988 µM; in [12], greater than 1000 µM. For the same compound, the Emax was found to be 44% in [2] and 52% in [4]. The EC50 was found to be 95.9 µM in [3] and 61.8 µM in assay [7].
Take `CC(C)=CCC/C(C)=C/CC/C(C)=C/CSc1ccccc1C(=O)O` [SALIRASIB]: the EC50 in [1] came to 4.9 µM; in assay [3], 102 µM; in assay [7], 85.5 µM; in assay [8], 167 µM. The Emax in assay [2] was 89%; in assay [4], 105%; in assay [5], 112%; in [6] it was 106%.
`CCC(=N\O)/C(C)=C/c1ccc(F)cc1` [A-079]: the IC50 was found to be 0.6 µM in assay [17]; 1.63 µM in assay [18]; 0.33 µM in [10]; 0.75 µM in assay [11]; 0.6 µM in [12].
Take `CC1CCC(C(C)C)C(O)C1` (configuration not stated) [MENTHOL]: in assay [19], the outcome was inactive. For the same compound, the IC50 in [9] was greater than 1000 µM; in assay [10] it was 511 µM; in assay [11], 951 µM; in [12], greater than 1000 µM. For the same compound, the EC50 in [1] was 278 µM; in assay [3], 7.1 µM; in assay [7], 5.2 µM; in assay [8], greater than 300 µM. Also, the Emax in [2] was found to be 41%; in assay [4], 40%; in [6] it was 80%.
Turning to `CC(C)c1ccc(NC(=O)Cn2cnc3c2c(=O)n(C)c(=O)n3C)cc1`, the IC50 in assay [9] was found to be 7.4 µM; in assay [10], 7.6 µM; in assay [11], 6.8 µM; in assay [12], 7.3 µM.
In the case of `CCCCCC(O)/C=C/C=O` (configuration not stated) [4-HYDROXYNON-2-ENAL], the EC50 was 9.9 µM in [1], 6 µM in [3], 6.6 µM in assay [7] and greater than 100 µM in assay [8]. For the same compound, the Emax came out at 76% in assay [2], 72% in [4] and 80% in [6].
Consider `CCCCC/C=C/C=C1/C(=O)C=C[C@@H]1C/C=C\CCCC(=O)O`, for which the EC50 is 40.4 µM in assay [1], 19.9 µM in [3], 56.4 µM in assay [7] and greater than 100 µM in assay [8]. The Emax in assay [2] is 70%; in assay [4], 65%; in [6], 75%.
As for `NC(=O)c1cccc(-c2cccc(OC(=O)NC3CCCCC3)c2)c1` [URB-597], the EC50 in [1] is 7.5 µM; in assay [3], 129 µM; in [7], 74.4 µM; in assay [8] it was greater than 100 µM. Also, the Emax worked out at 72% in assay [2], 77% in assay [4] and 85% in assay [6].
